# Assay results published in patent US20090124652A1, “Polymorphs of 1-(2-Methylpropyl)-1H-Imidazo[4,5-C][1,5]Naphthyridin-4-Amine Ethane-Sulfonate” (Takeda Pharmaceutical Company Limited, priority 2004, published 2009).
# Several values for one entry are separate records, joined by “and”; a condition that tells them apart may be missing. Identical values can stand only once. Entries after “also recorded” stand apart in the source; their conditions may differ.
# Assays:
# [1] = tested on: Peripheral blood mononuclear cells (PBMC); assay: Cytokine induction in human cells (in vitro human blood cell system); format: cell-based; settings: generally tested at 30-0.014 μM, incubated 18 to 24 hours, ELISA
# Description: An in vitro human blood cell system is used to assess cytokine induction. Activity is based on the measurement of interferon (α) and tumor necrosis factor (α) (IFN and TNF, respectively) secreted into culture media as described by Testerman et al. in “Cytokine Induction by the Immunomodulators Imiquimod and S-27609,” Journal of Leukocyte Biology, 58, 365-372 (September, 1995).
# Whole blood from healthy human donors is collected by venipuncture into EDTA vacutainer tubes. Peripheral blood mononuclear cells (PBMC) are separated from whole blood by density gradient centrifugation using HISTOPAQUE-1077. Blood is diluted 1:1 with Dulbecco's Phosphate Buffered Saline (DPBS) or Hank's Balanced Salts Solution (HBSS). […]
# Following incubation the plates are centrifuged for 10 minutes at 1000 rpm (approximately 200×g) at 4° C. […] The samples are analyzed for interferon (α) by ELISA and for tumor necrosis factor (α) by ELISA or IGEN Assay.
# Interferon (α) concentration is determined by ELISA using a Human Multi-Species kit from PBL Biomedical Laboratories, New Brunswick, N.J. Results are expressed in pg/mL.
# Tumor necrosis factor (α) (TNF) concentration is determined using ELISA kits available from Biosource International, Camarillo, Calif. Alternately, the TNF concentration can be determined by ORIGEN M-Series Immunoassay and read on an IGEN M-8 analyzer from IGEN International, Gaithersburg, Md. […]
# cytokine biosynthesis = settings: U.S. Pat. No. 6,194,425; cited from earlier work
# [2] = Hygroscopicity / water sorption of the crystalline form; format: physicochemical; settings: experimentally determined
# Protocol: The automated analysis of water sorption was performed using a VTI Symmetrical Gravimetric Analyzer Model 100 (SGA-100) operated in Step-Isotherm mode. The sample was exposed to a cycle of relative humidity (RH) conditions at 25° C. The relative humidity was cycled from 5% to 95% and back to 5% in increments of 5%, and the weight of the sample at each stage was recorded after equilibration (less than 0.01% weight change within 5 minutes). The percent weight change of the sample as a function of the relative humidity was plotted to yield the adsorption/desorption isotherm.
# [3] = Relative stability of the crystalline form; format: physicochemical
structure (smiles),measurement,setting,value
CC(C)Cn1cnc2c(N)nc3cccnc3c21.CCS(=O)(=O)O.O (hydrate or solvate),melting point,,220 to 221 °C and 221.5 to 223.4 °C
"CC(C)Cn1cnc2c(N)nc3cccnc3c21.CCS(=O)(=O)O [1-(2-methylpropyl)-1H-imidazo[4,5-c][1,5]naphthyridin-4-amine ethanesulfonate]",induction of production of interferon α and/or tumor necrosis factor α,[1],induce the production of certain cytokines; also recorded: inducing the production of interferon α and/or tumor necrosis factor α
"CC(C)Cn1cnc2c(N)nc3cccnc3c21 [1-(2-methylpropyl)-1H-imidazo[4,5-c][1,5]naphthyridin-4-amine]",ability to induce cytokine biosynthesis,cytokine biosynthesis,induce cytokine biosynthesis
"CC(C)Cn1cnc2c(N)nc3cccnc3c21.CCS(=O)(=O)O [Form B, 1-(2-methylpropyl)-1H-imidazo[4,5-c][1,5]naphthyridin-4-amine ethanesulfonate]",hygroscopicity,[2],hygroscopic
"CC(C)Cn1cnc2c(N)nc3cccnc3c21.CCS(=O)(=O)O.O [Form C, 1-(2-methylpropyl)-1H-imidazo[4,5-c][1,5]naphthyridin-4-amine ethanesulfonate monohydrate]",stability of crystalline form,[3],relatively stable
